Data taken from ChEMBL document CHEMBL3272053, “(exo, exo)-2-Aryltropane-3-carboxylic esters, hypoglycemic agents with accompanying analgesic activity” (J Med Chem, 1978).
Active and inactive are the calls of the source. No cut-off for these calls is given here.

Legend:
Rattus norvegicus [1] = assay: Hypoglycemic activity in glucose loaded Sprague-Dawley rat assessed as reduction of blood glucose level at 64 mg/kg, po relative to control; assay type: functional; set-up: scale not given: the % may be the effect or the level left
Rattus norvegicus [2] = assay: Narcotic analgesic activity in fasted Sprague-Dawley rat at 240 mg/kg, po measured at 15 mins by D'Amour-Smith tail-flick test relative to control; assay type: functional
Mus musculus [3] = assay: Analgesic activity in po dosed Swiss-Webster mouse assessed as reduction of acetylcholine-induced writhing; assay type: functional
Rattus norvegicus [4] = assay: Toxicity in Sprague-Dawley rat assessed as very rigid structure at 240 mg/kg, po; assay type: organism-based; set-up: dose 240 mg/kg, route oral; conditions: in vivo
Rattus norvegicus [5] = assay: Hypoglycemic activity in glucose loaded Sprague-Dawley rat assessed as reduction of blood glucose level at 64 mg/kg, po in presence of microsomal enzyme inhibitor SKF 525-A; assay type: functional, organism-based; set-up: dose 64 mg/kg
Rattus norvegicus [6] = assay: Narcotic analgesic activity in fed Sprague-Dawley rat at 240 mg/kg, sc measured at 30 mins by D'Amour-Smith tail-flick test; assay type: functional; conditions: route subcutaneous
Mus musculus [7] = assay: Analgesic activity in sc dosed Swiss-Webster mouse assessed as reduction of acetylcholine-induced writhing; assay type: functional; conditions: Mus musculus, Swiss-Webster, sc; for ED50: read-out: ED50
Rattus norvegicus [8] = assay: Analgesic activity in rat assessed as protection against intraarterial bradykinin-induced pain response at 50 mg/kg, sc relative to control; assay type: functional; conditions: route subcutaneous
Rattus norvegicus [9] = assay: Toxicity in Sprague-Dawley rat assessed as tremor at 240 mg/kg, sc; assay type: organism-based; set-up: dose 240 mg/kg, route subcutaneous; conditions: in vivo
Rattus norvegicus [10] = assay: Toxicity in Sprague-Dawley rat assessed as convulsion at 240 mg/kg, sc; assay type: organism-based; set-up: dose 240 mg/kg, route subcutaneous; conditions: in vivo
Rattus norvegicus [11] = assay: Hypoglycemic activity in Sprague-Dawley rat assessed as reduction of blood glucose level at 87 mg/kg, po by glucagon-impaired glucose disposal test relative to control; assay type: functional; set-up: scale not given: the % may be the effect or the level left
Rattus norvegicus [12] = assay: Hypoglycemic activity in glucose loaded Sprague-Dawley rat assessed as reduction of blood glucose level at 264 mg/kg, po relative to control; assay type: functional; set-up: scale not given: the % may be the effect or the level left
Mus musculus [13] = assay: Analgesic activity in Swiss-Webster mouse assessed as reduction of acetylcholine-induced writhing at 50 mg/kg, po relative to control; assay type: functional; set-up: scale not given: the % may be the effect or the level left
Rattus norvegicus [14] = assay: Hypoglycemic activity in Sprague-Dawley rat assessed as reduction of blood glucose level at 88 mg/kg, po by glucagon-impaired glucose disposal test relative to control; assay type: functional
Rattus norvegicus [15] = assay: Hypoglycemic activity in Sprague-Dawley rat assessed as reduction of blood glucose level at 300 mg/kg, po by glucagon-impaired glucose disposal test relative to control; assay type: functional; set-up: scale not given: the % may be the effect or the level left
Rattus norvegicus [16] = assay: Narcotic analgesic activity in fasted Sprague-Dawley rat at 240 mg/kg, po measured at 60 mins by D'Amour-Smith tail-flick test relative to control; assay type: functional
Rattus norvegicus [17] = assay: Toxicity in Sprague-Dawley rat assessed as hyperexcitability at 240 mg/kg, po; assay type: organism-based; set-up: dose 240 mg/kg, route oral; conditions: in vivo
Rattus norvegicus [18] = assay: Hypoglycemic activity in Sprague-Dawley rat assessed as reduction of blood glucose level at 100 mg/kg, po by glucagon-impaired glucose disposal test relative to control; assay type: functional; set-up: scale not given: the % may be the effect or the level left
Rattus norvegicus [19] = assay: Narcotic analgesic activity in fasted Sprague-Dawley rat at 480 mg/kg, po measured at 60 mins by D'Amour-Smith tail-flick test relative to control; assay type: functional
Rattus norvegicus [20] = assay: Analgesic activity in po dosed rat assessed as reduction of intraarterial bradykinin-induced pain response; assay type: functional
Rattus norvegicus [21] = assay: Toxicity in Sprague-Dawley rat assessed as tremor at 480 mg/kg, po; assay type: organism-based; set-up: dose 480 mg/kg, route oral; conditions: in vivo
Rattus norvegicus [22] = assay: Toxicity in Sprague-Dawley rat assessed as convulsion at 480 mg/kg, po; assay type: organism-based; set-up: dose 480 mg/kg, route oral; conditions: in vivo
Rattus norvegicus [23] = assay: Hypoglycemic activity in fasted Sprague-Dawley rat assessed as reduction of blood glucose level at 78 mg/kg, po relative to control; assay type: functional; set-up: scale not given: the % may be the effect or the level left
Rattus norvegicus [24] = assay: Hypoglycemic activity in fasted Sprague-Dawley rat assessed as reduction of blood glucose level at 78 mg/kg, iv relative to control; assay type: functional, organism-based; set-up: dose 78 mg/kg
Rattus norvegicus [25] = assay: Hypoglycemic activity in glucose loaded Sprague-Dawley rat assessed as reduction of blood glucose level at 100 mg/kg, po relative to control; assay type: functional; set-up: scale not given: the % may be the effect or the level left
Mus musculus [26] = assay: Analgesic activity in Swiss-Webster mouse assessed as reduction of acetylcholine-induced writhing at 75 mg/kg, sc relative to control; assay type: functional; set-up: scale not given: the % may be the effect or the level left; conditions: route subcutaneous
Rattus norvegicus [27] = species on record: Rattus norvegicus; assay: Narcotic analgesic activity in Sprague-Dawley rat measured at 15 mins by D'Amour-Smith tail-flick test relative to control; assay type: functional
Rattus norvegicus [28] = assay: Toxicity in Sprague-Dawley rat assessed as tremor at 240 mg/kg, po; assay type: organism-based; set-up: dose 240 mg/kg, route oral; conditions: in vivo
Rattus norvegicus [29] = assay: Toxicity in Sprague-Dawley rat assessed as rigidity at 240 mg/kg, po; assay type: organism-based; set-up: dose 240 mg/kg, route oral; conditions: in vivo
Rattus norvegicus [30] = assay: Hypoglycemic activity in glucose loaded Sprague-Dawley rat assessed as reduction of blood glucose level at 100 mg/kg, po in presence of microsomal enzyme inhibitor SKF 525-A; assay type: functional, organism-based; set-up: dose 100 mg/kg
Rattus norvegicus [31] = assay: Narcotic analgesic activity in po dosed fasted Sprague-Dawley rat measured at 60 mins by D'Amour-Smith tail-flick test; assay type: functional
Rattus norvegicus [32] = assay: Narcotic analgesic activity in sc dosed fed Sprague-Dawley rat measured at 30 mins by D'Amour-Smith tail-flick test; assay type: functional; conditions: Rattus norvegicus, Sprague-Dawley, Tail, sc, 0.5 h; read-out: ED50
Rattus norvegicus [33] = assay: Toxicity in Sprague-Dawley rat assessed as rigidity at >=120 mg/kg, po; assay type: organism-based; conditions: in vivo
Rattus norvegicus [34] = assay: Toxicity in Sprague-Dawley rat assessed as tremor at >= 120 mg/kg, po; assay type: organism-based; set-up: dose 120 mg/kg, route oral; conditions: in vivo
Rattus norvegicus [35] = assay: Toxicity in Sprague-Dawley rat assessed as hyperexcitability at >= 120 mg/kg, po; assay type: organism-based; set-up: dose 120 mg/kg, route oral; conditions: in vivo
Rattus norvegicus [36] = assay: Toxicity in Sprague-Dawley rat assessed as mortality at >= 120 mg/kg, po; assay type: organism-based; set-up: dose 120 mg/kg, route oral; conditions: in vivo
Rattus norvegicus [37] = assay: Potency index, ratio of codeine ED50 to compound ED50 for analgesic activity in po dosed rat assessed as reduction of intraarterial bradykinin-induced pain response; assay type: functional

Work on `COC(=O)[C@H]1C[C@H]2CC[C@H]([C@H]1c1cccs1)N2CCC#N.Cc1ccc(S(=O)(=O)O)cc1` yielded an Activity (Rattus norvegicus [1]) of 64%, an Activity (Rattus norvegicus [2]) of 100% and an ED50 (Mus musculus [3]) of 60 mg/kg. For the same molecule, the Activity (Rattus norvegicus [4]) was “Toxic” and the Activity (Rattus norvegicus [5]) was “Active”.
Work on `CC(=O)[C@H]1C[C@H]2CC[C@H]([C@H]1c1cccs1)N2C.Cl` yielded an Activity (Rattus norvegicus [6]) of 55%, an ED50 (Mus musculus [7]) of 12 mg/kg and an Activity (Rattus norvegicus [8]) of 80%. For the same molecule, the Activity (Rattus norvegicus [9]) was “Toxic”, the Activity (Rattus norvegicus [10]) was “Toxic” and the Activity (Rattus norvegicus [11]) was 26%.
`COC(=O)CN1[C@@H]2CC[C@@H]1[C@@H](c1cccs1)[C@@H](C(=O)OC)C2.Cl` showed an Activity (Rattus norvegicus [12]) of 70%, an Activity (Rattus norvegicus [2]) of 100% and an Activity (Mus musculus [13]) of 33%. For the same molecule, the Activity (Rattus norvegicus [14]) was “inactive”.
`COC(=O)[C@H]1C[C@H]2CC[C@H]([C@H]1c1ccsc1)N2C` showed an Activity (Rattus norvegicus [15]) of 42%, an Activity (Rattus norvegicus [16]) of 40% and an ED40 (Mus musculus [7]) of 12 mg/kg. For the same molecule, the Activity (Rattus norvegicus [17]) was “Toxic”.
Molecule `COC(=O)[C@H]1C[C@H]2CC[C@H]([C@H]1c1ccc[nH]1)N2C` has an Activity (Rattus norvegicus [18]) of 30%, an Activity (Rattus norvegicus [16]) of 19% and an Activity (Rattus norvegicus [19]) of 86%. The ED50 (Mus musculus [7]) was 18 mg/kg, the ED50 (Rattus norvegicus [20]) was 8.5 mg/kg and the Activity (Rattus norvegicus [21]) was “Toxic”. For the same molecule, the Activity (Rattus norvegicus [22]) was “Toxic”.
`Cl.O=C(O)[C@H]1C[C@H]2CC[C@@H](N2)[C@H]1c1cccs1` was tested, and the Activity (Rattus norvegicus [23]) was less than 20% and the Activity (Rattus norvegicus [24]) was “inactive”.
With `CCC(CC)CN1[C@@H]2CC[C@@H]1[C@@H](c1cccs1)[C@@H](C(=O)OC)C2` the Activity (Rattus norvegicus [25]) was 69%, the Activity (Rattus norvegicus [2]) was 72% and the Activity (Mus musculus [26]) was 7%. The Activity (Rattus norvegicus [27]) was 24%.
`CCOCCN1[C@@H]2CC[C@@H]1[C@@H](c1cccs1)[C@@H](C(=O)OC)C2` gave an Activity (Rattus norvegicus [25]) of 73%, an Activity (Rattus norvegicus [2]) of 100% and an Activity (Mus musculus [26]) of 67%. For the same molecule, the Activity (Rattus norvegicus [28]) was “Toxic”, the Activity (Rattus norvegicus [29]) was “Toxic” and the Activity (Rattus norvegicus [17]) was “Toxic”. The Activity (Rattus norvegicus [30]) was “inactive”.
In the case of `COC(=O)[C@H]1C[C@H]2CC[C@H]([C@H]1c1cccs1)N2C.Cl`, the ED50 (Rattus norvegicus [31]) is reported as 59 mg/kg, the ED50 (Rattus norvegicus [32]) is reported as 60 mg/kg and the Activity (Rattus norvegicus [33]) is reported as “Toxic”. For the same molecule, the ED50 (Rattus norvegicus [20]) was 6.9 mg/kg, the Activity (Rattus norvegicus [34]) was “Toxic” and the Activity (Rattus norvegicus [35]) was “Toxic”. For the same molecule, the Activity (Rattus norvegicus [36]) was “Toxic”, the “Ratio ED50” value (Rattus norvegicus [37]) was greater than 10 and the Activity (Rattus norvegicus [14]; 88 mg/kg) was 75%.
